Marks after values point to notes of the source that are not given here.
Experiments:
[1] = set-up: species or system CD-1 mice; conditions: mouse, in vivo, iv
[2] = set-up: species or system CD-1 mice; conditions: mouse, in vivo; for Blood to Brain Influx Ki: iv
[3] = set-up: species or system CD-1 mice; conditions: mouse, in vivo, iv; remark: listed apart in the source
[4] = Saturability of brain uptake; set-up: species or system CD-1 mice; conditions: mouse, in vivo, iv
[5] = set-up: species or system CD-1 mice; conditions: mouse, in vivo, iv; remark: listed apart in the source
[6] = assay type: physicochemical; conditions: pH 7.5
[7] = in vivo; cited from earlier work
[8] = set-up: species or system CD-1 mice; conditions: mouse, in vivo, iv; remark: listed apart in the source

Row | Substance | Half-Time Serum Clearance t1/2 [1] [min] | Initial Volume of Distribution in Brain Vi [2] [µL/g] | Blood to Brain Influx Ki [2] | Capillary Depletion: Capillary (capillary/serum ratio) [3] [µL/g] | Capillary Depletion: Parenchyma (parenchyma/serum ratio) [3] [µL/g] | Serum radioactivity, Without Unlabeled IRA [4] [cpm/μL] | Whole Brain brain/serum ratio, Without Unlabeled IRA [4] [µL/g] | 125I-IRA remaining intact, Serum, 10 min [5] [%] | 125I-IRA remaining intact, Serum, 60 min [5] | 125I-IRA remaining intact, Whole Brain, 10 min [5] [%] | Degradation (loss of precipitable 125I-IRA) in serum from 10 to 60 min [5] | Degradation (loss of precipitable 125I-IRA) in whole brain from 10 to 60 min [5] | Lipid Solubility Partition Coefficient [6] | Log Partition Coefficient (Log P) [6] | Capillary Depletion: %Parenchyma (percent of IRA reaching the brain found in parenchyma vs capillaries) [3] [%] | 125I-IRA remaining intact, Whole Brain, 60 min [5] | Peak percent of injected 125I-IRA taken up per gram brain tissue (%Inj/g) [8] [%] | Percentage of injected dose entering the brain (%Inj/g) [7] [%] | Percent of IRA reaching the brain trapped in the capillaries [3] [%]
1 | leptin: hormone crossing the BBB, literature comparison | – | – | – | – | – | – | – | – | – | – | – | – | – | – | – | – | – | 0.171 | –
2 | YXEGTFTSDYSIYLDKQAAXEFVNWLLAGGPSSGAPPPSKKKKKK-NH2 [DA-JC4] | 151.94 | 2.495 ± 0.8554 | 0.6680 ± 0.1089 µL/g/min | 1.129 ± 0.597 | 9.855 ± 2.751 | 29.32 ± 2.014 | 15.10 ± 1.243 | 85.66 ± 1.866 | 63.32 ± 1.987^a % | 69.63 ± 16.36 | – | – | 0.0030 ± 0.0008 | −2.520 ± 0.1184 | 89.7 | 47.99 ± 18.71% | 0.17 | – | –
3 | HAEGTFTSDVSSYLEGQAAK^aEFIAWLVRGRG-OH [Liraglutide] | 167.22 | 2.434 ± 0.5977 | ns | – | – | – | – | 101.2 ± 0.062 | 100.18 ± 0.244^a % | 100.1 ± 4.206 | less than 2% | less than 12% | – | – | 28.7 | – | – | – | 71.3
4 | YXEGTFTSDYSIYLDKQAAXEFVNWLLAGGPSSGAPPPSK-NH2 [DA3-CH] | 42.57 | 2.186 ± 0.5638 | 0.3922 ± 0.0668 µL/g/min | 0.637 ± 0.073 | 3.918 ± 0.993 | 65.07 ± 6.275 | 20.86 ± 1.943 | 93.26 ± 1.110 | 73.65 ± 3.138^a % | 71.59 ± 12.14 | 19.6% | 44.9% | 0.0048 ± 0.0015 | −2.325 ± 0.1318 | 86.02 | 26.71 ± 17.23^a % | 0.08 | – | –
5 | YXEGTFTSDYSIYLDKQAAXEFVC ^*WLLAGGPSSGAPPPSK-NH2 [Peptide 20] | 43 | 0.4075 ± 0.2728 | – | 0.796 ± 0.252 | 0.615 ± 0.807 | 217.3 ± 7.176 | 9.51 ± 0.421 | 100.16 ± 0.120 | 93.80 ± 1.850^a % | 99.4 ± 2.070 | – | – | 0.0057 ± 0.0008 | −2.249 ± 0.0671 | 43.6 | – | 0.05 | – | 56.4

The next lines start with results.

Row | Half-Time Serum Clearance t1/2 [1] [min] | Initial Volume of Distribution in Brain Vi [2] [µL/g] | Blood to Brain Influx Ki [2] | Capillary Depletion: Capillary (capillary/serum ratio) [3] [µL/g] | Capillary Depletion: Parenchyma (parenchyma/serum ratio) [3] [µL/g] | Serum radioactivity, Without Unlabeled IRA [4] [cpm/μL] | Whole Brain brain/serum ratio, Without Unlabeled IRA [4] [µL/g] | 125I-IRA remaining intact, Serum, 10 min [5] [%] | 125I-IRA remaining intact, Serum, 60 min [5] | 125I-IRA remaining intact, Whole Brain, 10 min [5] [%] | Degradation (loss of precipitable 125I-IRA) in serum from 10 to 60 min [5] | Degradation (loss of precipitable 125I-IRA) in whole brain from 10 to 60 min [5] | Lipid Solubility Partition Coefficient [6] | Log Partition Coefficient (Log P) [6] | Capillary Depletion: %Parenchyma (percent of IRA reaching the brain found in parenchyma vs capillaries) [3] [%] | 125I-IRA remaining intact, Whole Brain, 60 min [5] | Peak percent of injected 125I-IRA taken up per gram brain tissue (%Inj/g) [8] [%] | Substance | Percentage of injected dose entering the brain (%Inj/g) [7] [%] | Percent of IRA reaching the brain trapped in the capillaries [3] [%]
6 | 149.31 | -0.340 ± 0.3285 | ns | 0.434 ± 0.056 | -0.850 ± 0.533 | 692.1 ± 55.27 | 9.637 ± 0.308 | 100.0 ± 0.031 | 98.91 ± 0.029^a % | 95.55 ± 1.139 | less than 2% | less than 12% | 0.0353 ± 0.0016 | −1.452 ± 0.0199 | – | – | – | HXEGTFTSDVSSYLEGQAAK^bEFIAWLVRGRG-OH [Semaglutide] | – | –
7 | 39.61 | 1.057 ± 0.1876 | 0.3489 ± 0.0228 µL/g/min | 0.543 ± 0.178 | 1.482 ± 0.462 | 81.33 ± 6.720 | 11.41 ± 0.528 | 95.77 ± 0.350 | 81.20 ± 1.960^a % | 78.98 ± 3.930 | – | – | 0.0052 ± 0.0049 | −2.564 ± 0.5921 | 73.2 | 52.91 ± 5.030^a % | 0.15 | YXEGTFTSDYSIYLDKQAAXEFVNWLLAGGPSSGAPPPSC-NH2 [Peptide 17] | – | –
8 | 32.37 | 0.2034 ± 0.1134 | ns | 0.764 ± 0.092 | -0.306 ± 0.219 | – | 7.18 ± 0.202 | 99.85 ± 0.020 | 90.78 ± 4.440% | 107.8 ± 3.37 | – | – | 0.2493 ± 0.0239 | −0.604 ± 0.0418 | – | – | – | YXEGTFTSDYSIYLDKQAAXEFVNWLLAGGPSSGAPPPSK-NH2 [Peptide 18] | – | –

From publication PMC7606641 (Biochemical pharmacology, 2020)
